Consider 8 compounds from US7902356B2, “Thiazolopyridinone derivates as MCH receptor antagonists” (Eli Lilly and Company, priority 2004, dated 2011).

Structures can show the parent of a compound that is named as a salt.

The target in the first assay is T1, human MCHR1 (Homo sapiens, UniProt Q99705).
T1 construct: The full-length cDNA for human MCHR1 was cloned; expressed in transfected cells; host or cells: AV12 cells previously transfected with Galpha15
T1 sequence (Q99705 whole entry): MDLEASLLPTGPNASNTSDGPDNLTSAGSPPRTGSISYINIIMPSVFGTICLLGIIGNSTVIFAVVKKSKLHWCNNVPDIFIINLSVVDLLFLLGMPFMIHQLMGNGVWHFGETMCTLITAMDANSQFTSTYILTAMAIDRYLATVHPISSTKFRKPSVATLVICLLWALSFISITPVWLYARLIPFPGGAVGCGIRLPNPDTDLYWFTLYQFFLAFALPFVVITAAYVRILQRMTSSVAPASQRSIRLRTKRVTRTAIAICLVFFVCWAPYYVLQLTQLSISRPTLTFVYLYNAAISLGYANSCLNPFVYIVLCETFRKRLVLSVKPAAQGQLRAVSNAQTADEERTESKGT
As to the kind of experiment: 125I-MCH competitive binding assay with clone 43 membranes (SPA). The conditions noted are these: 125I-MCH binding, Ki from IC50 by Cheng-Prusoff. The protocol:
The full-length cDNA for human MCHR1 was cloned from a human adult brain cDNA library (Edge Biosystems, Cat. 38356) by standard polymerase chain reaction (PCR) methodology employing the following primers: sense, 5′-GCCACCATGGACCT GGAAGCCTCGCTGC-3′; anti-sense, 5′-[…]-3′. The PCR reaction was performed in a final volume of 50 μl containing 5 μl of a 10× stock solution of PCR buffer, 1 μl of 10 mM dNTP mixture (200 μM final), 2 μl of 50 mM Mg(SO4) (2 mM final), 0.5 μl of 20 μM solutions of each primer (0.2 μM final), 5 μl of template cDNA containing 0.5 ng DNA, 0.5 μl of Platinum Taq High Fidelity DNA polymerase (Gibco Life Technologies) and […] of H2O. PCR amplification was performed on a Perkin Elmer 9600 thermocycler. After denaturation for 90 sec at 94° C., the amplification sequence consisting of 94° C. for 25 sec, 55° C. for 25 sec and 72° C. for 2 min was repeated 30 times, followed by a final elongation step at 72° C. for 10 min. The desired PCR product (1.1 Kb) was confirmed by agarose gel electrophoresis and the band was extracted from the gel by Geneclean (Bio101) following the manufacturer's instructions. Following extraction, the cDNA fragment was cloned into pCR2.1-TOPO plasmid (Invitrogen Corp) to confirm the identity and sequence.
In order to generate cell lines stably expressing MCHR1, the insert was then subcloned into the Xba I and Not I sites of pcDNA(+)-3.1-neomycin (Invitrogen). After purification by Qiagen Maxi-prep kit (QIAGEN, Inc.), the plasmid was transfected by Fugene 6 (Roche Applied Science) into AV12 cells that had been previously transfected with the promiscuous G protein Gα15. The transfected cells were selected by G418 (800 μg/ml) for 10-14 days and single colonies were isolated from culture plates. The G418-resistant colonies were further selected for MCHR1 expression by measuring MCH-stimulated Ca^2+ transients with a fluorometric imaging plate reader (FLIPR, Molecular Devices).
Both the ^125I-MCH binding and functional GTPγ^35S binding assays employed membranes isolated from a clone designated as clone 43. Typically, cells from 20 confluent T225 flasks were processed by washing the monolayers in cold phosphate-buffered saline (PBS), scraping the cells into same and re-suspending the cell pellet in 35 ml of 250 mM Sucrose, 50 mM HEPES, pH 7.5, 1 mM MgCl2, 24 μg/ml DNase I, and protease inhibitors (1 Complete® tablet, per 50 ml of buffer prepared, Roche Diagnostics). Alternatively, greater levels of cells could be generated by adapting cell growth to suspension culture in 20 L stirred vessel bioreactors. After incubation on ice for 5 min, cells were disrupted with 20-25 strokes of a Teflon/Glass homogenizer attached to an overhead motorized stirrer, and the homogenate was centrifuged at 40,000 rpm in Beckman Type 70.1 Ti rotor. The pellets were re-suspended in 250 mM Sucrose, 50 mM HEPES, pH 7.5, 1.5 mM CaCl2, 1 mM MgSO4 and protease inhibitors by Teflon/Glass homogenization to achieve a protein concentration of ˜3-5 mg/ml (Pierce BCA assay with Bovine serum albumin as standard). Aliquots were stored at −70° C.
Binding of compounds to MCHR1 was assessed in a competitive binding assay employing ^125I-MCH, compound and clone 43 membranes. Briefly, assays are carried out in 96-well Costar 3632 white opaque plates in a total volume of 200 μl containing 25 mM HEPES, pH 7.0, 10 mM CaCl2, 2 mg/ml bovine serum albumin, 0.5% dimethyl sulfoxide (DMSO), 5 μg of clone 43 membranes, 200 pM ^125I-MCH (NEN), 0.625 mg/ml of wheat germ agglutinin scintillation proximity assay beads (WGA-SPA beads, Amersham Inc., now GE Healthcare) and a graded dose of test compound. Non-specific binding is assessed in the presence of 0.1 μM unlabeled MCH. Bound ^125I-MCH is determined by placing sealed plates in a Microbeta Trilux (Perkin Elmer Life and Analytical Sciences Inc.) and counting after a 12 hr delay. […]
As to `O=C1c2sc(-c3ccc(Cl)cc3)nc2CCN1c1ccc2c(c1)ncn2CCN1CCCC1` [Example 2, 2-(4-Chloro-phenyl)-5-[1-(2-pyrrolidin-1-yl-ethyl)-1H-benzoimidazol-5-yl]-6,7-dihydro-5H-thiazolo[5,4-c]pyridin-4-one], the affinity, expressed as Ki, was 39.7 nM.

As to `COc1cc(-n2ccc3nc(-c4ccc(Cl)cc4)sc3c2=O)ccc1OCCN1CC(C)(C)OC(C)(C)C1` [Example 65, 2-(4-Chloro-phenyl)-5-{3-methoxy-4-[2-(2,2,6,6-tetramethyl-morpholin-4-yl)-ethoxy]-phenyl}-5H-thiazolo[5,4-c]pyridine-4-one Hydrochloride], the affinity, expressed as Ki, was 35.8 nM. Same read-out and setting: then `COc1cc(N2CCc3nc(-c4ccc(Cl)cc4)sc3C2=O)ccc1OCCN(C)C` [Example 33, 2-(4-Chloro-phenyl)-5-[4-(2-dimethylamino-ethoxy)-3-methoxy-phenyl]-6,7-dihydro-5H-thiazolo[5,4-c]pyridin-4-one], with 5.13 nM; and `COc1cc(N2CCc3nc(-c4ccc(Cl)cc4)sc3C2=O)ccc1OCCN1CCCCC1` [Example 15, 2-(4-Chloro-phenyl)-5-[3-methoxy-4-(2-piperidin-1-yl-ethoxy)-phenyl]-6,7-dihydro-5H-thiazolo[5,4-c]pyridin-4-one], with 19 nM.

`Cc1cc2cc(N3CCc4nc(-c5ccc(Cl)cc5)sc4C3=O)ccc2n1CCN1CCCC1` [Example 5, 2-(4-Chloro-phenyl)-5-[2-methyl-1-(2-pyrrolidin-1-yl-ethyl)-1H-indol-5-yl]-6,7-dihydro-5H-thiazolo[5,4-c]pyridin-4-one] registered an inhibition constant (Ki) of 10.2 nM.

As to `Cl.Cn1cc(CCN2CCCC2)c2ccc(N3CCc4nc(-c5ccc(Cl)cc5)sc4C3=O)cc21` [Example 47, 2-(4-Chloro-phenyl)-5-[1-methyl-3-(2-pyrrolidin-1-yl-ethyl)-1H-indol-6-yl]-6,7-dihydro-5H-thiazolo[5,4-c]pyridin-4-one hydrochloride], the inhibition constant Ki came out at 3.16 nM.

Tested on in the next assay: not listed separately
As to the kind of experiment: In vivo efficacy: 3 day body weight change in diet-induced obese rats. Conditions: 10 mg/kg oral gavage once a day for 3 days; 3 day cumulative; diet-induced obese male Long-Evans rats. The protocol: Vehicle consisted of 1% CMC and 0.25% PS-80 in water.
Animals were individually housed in a temperature regulated room (24° C.) with a reverse 12 hour light/dark cycle (dark 10:00/22:00). Water and food (Teklad 95217, Harlan, Wis.) were available ad libitum. Compounds were dosed orally once a day before onset of dark for 3 days. Daily food intake and body weight change were measured for the 3 day period.
Take `COc1cc(-n2ccc3nc(-c4ccc(Cl)cc4)sc3c2=O)ccc1CCCN1CCCC1.Cl` [Example 52, 2-(4-Chloro-phenyl)-5-[3-methoxy-4-(3-pyrrolidin-1-yl-propyl)-phenyl]-5H-thiazolo[5,4-c]pyridin-4-one hydrochloride]: the “Body weight reduction @ 10 mg/Kg versus vehicle control. Data expressed in grams.” value came to 9.6 grams. Same read-out and setting: then `Cl.Cn1cc(CCN2CCCC2)c2ccc(N3CCc4nc(-c5ccc(Cl)cc5)sc4C3=O)cc21` [Example 47, 2-(4-Chloro-phenyl)-5-[1-methyl-3-(2-pyrrolidin-1-yl-ethyl)-1H-indol-6-yl]-6,7-dihydro-5H-thiazolo[5,4-c]pyridin-4-one hydrochloride], with 7.2 grams; and `COc1cc(-n2ccc3nc(-c4ccc(Cl)cc4)sc3c2=O)ccc1OCc1cncn1C` [Example 42], with 1.7 grams.

For orientation: Ki means the equilibrium dissociation constant of an inhibitor or competing ligand from its target. A lower Ki goes with tighter binding.
